Experimental data from patent US9456589B2, “Elasmobranch-repelling compounds and methods of use” (priority 2005, dated 2016).
Where “and” joins values, the source holds several entries; their conditions need not be identical. Equal entries are not always repeated.

What was measured:
Assay type in all cases: in vivo
[1] = tested on: sharks (lemon, nurse, blacknose, blacktip pooled); assay: Tonic immobility, Syringe Assay, summary over species
In short: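 Test chemical delivered as a bolus of 60 mL or more from one to five feet from the shark, distance set by water current strength. Time from delivery until response was recorded; it depends on bolus size, distance and current as the diffusing cloud reaches the shark.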

[2] = tested on: juvenile lemon and nurse sharks; assay: Tonic immobility, Micropipette Assay, summary over species; details: juvenile lemon and nurse sharks
Protocol: One bioassay used to observe and measure flight response is the tonic immobility test. Tonic immobility is a state of paralysis that typically occurs when a shark is subject to inversion of its body along the longitudinal axis. This state is called “tonic,” and the shark can remain in this state for up to 15 minutes thereby allowing researchers to observe effects of chemical repellents. The “tonic” state of the shark is first established by releasing seawater in proximity to the “tonic” shark with the same delivery instrument and at the same distance as a “test” repellent compound will be released. Some controls are released with a high flow rate (30 mL/sec) in order to establish that sharks are not awakened by a jet of fluid over their noses. Once behavioral controls are established, a compound or composition that may have a repelling effect is delivered to the shark. If the compound or composition engenders a flight response, the shark will awaken from the tonic state and rapidly attempt to flee the delivered repellent. Using this tonic immobility bioassay researches can quantify the strength of a repellent effect.
A fourth method of delivery was called the “Micropipette Assay” method of delivery. In this method, a very small dose (fraction of a mL) of a test substance was delivered directly into a shark's mouth. […] A response, such as a cough or other notable action of the shark, was usually noted when effective gustatory repellents were delivered directly into a shark's mouth while in tonic immobility.
The Micropipette Assay method has not proven to be a particularly effective method of assaying for a flight response in elasmobranchs. The Micropipette Assay method is, nevertheless, an excellent method for specifying that a gustatory response has occurred. It is effective for specifying a gustatory response because the micropipette delivery method allows direct delivery of an entire bolus of test substance into the mouth of the shark being tested.
An oral dose of no more than 400 microliters was then delivered by micropipette into the mouth of a juvenile nurse shark. Tonic immobility was terminated. For each derivative of butyric acid and each naturally occurring acid listed in Table 9, a first micropipette assay was performed on a juvenile lemon shark with no more than 100 microliters of test acid in an oral dose. A second micropipette assay was then performed on a juvenile nurse shark with no more than 400 microliters of test acid in an oral dose. In each test, tonic immobility was terminated.
In a first set of studies on the effectiveness of carboxylic acids as elasmobranch repellents, each tested substance was subjected to the following protocol. […] An oral dose of no more than 400 microliters was then delivered by micropipette into the mouth of a juvenile nurse shark. Tonic immobility was terminated. […] The data evidences the gustatory repelling activity of carboxylic acids.

[3] = tested on: sharks (lemon, nurse, tiger pooled); assay: Tonic immobility, Hd Syringe Assay, summary over species; details: species pooled
In short: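 Sharks held in tonic immobility by inversion, with seawater sham releases (some at 30 mL/sec) as controls. 3-methylbutanal released slowly by 3 mL syringe (22 gauge) within 3 inches of mouth and nares. Waking/flight response recorded, with time to response where measurable.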

CC(C)CC=O [3-methylbutanal]
Syringe Y (termination of tonic immobility), trials of trials [1]: 7/7 | Micropipette assays with a behavioral response within tonic immobility [2]: ten | Micropipette assays with a gustatory response (termination or behavior change) [2]: 16 of 20 and fifteen | Micropipette assays with no response [2]: five | Micropipette Y (termination of tonic immobility), trials of trials ([2]; oral dose): five | Hd-Syringe N (no response), trials of trials [3]: one and 1/27 | Hd-Syringe R (behavior response within tonic immobility), trials of trials [3]: 6/27 | Hd-Syringe R, percent of trials [3]: 22% | Hd-Syringe Y (termination of tonic immobility), trials of trials [3]: 20/27 | Hd-Syringe Y, percent of trials [3]: 74%
